Publication PMC4088097 (Scientific Reports, 2014)

Molecular target: T1, ribose binding protein RbsB (Escherichia coli, UniProt P02925)
T1 sequence (P02925 26-296): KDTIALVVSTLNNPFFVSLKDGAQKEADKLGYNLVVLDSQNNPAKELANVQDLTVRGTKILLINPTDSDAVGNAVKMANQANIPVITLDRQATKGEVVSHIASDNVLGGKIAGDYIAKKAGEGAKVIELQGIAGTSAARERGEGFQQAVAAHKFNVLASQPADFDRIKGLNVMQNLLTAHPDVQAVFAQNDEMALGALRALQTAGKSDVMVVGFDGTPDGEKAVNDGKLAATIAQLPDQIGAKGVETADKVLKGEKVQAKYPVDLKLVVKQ
Test: ITC with purified protein, […]°C, one-site fit

O=C[C@H](O)[C@H](O)[C@H](O)CO [ribose]
Kd: 125 nM
